According to ChEMBL document CHEMBL5096238 (J Med Chem, 2022):
pIC50: −log10 of the molar value.

Columns and labels:
[1] = biological target: T1, Tyrosine-protein kinase receptor UFO (Homo sapiens, UniProt P30530); assay: Inhibition of AXL (unknown origin)
T1 sequence (P30530 whole entry): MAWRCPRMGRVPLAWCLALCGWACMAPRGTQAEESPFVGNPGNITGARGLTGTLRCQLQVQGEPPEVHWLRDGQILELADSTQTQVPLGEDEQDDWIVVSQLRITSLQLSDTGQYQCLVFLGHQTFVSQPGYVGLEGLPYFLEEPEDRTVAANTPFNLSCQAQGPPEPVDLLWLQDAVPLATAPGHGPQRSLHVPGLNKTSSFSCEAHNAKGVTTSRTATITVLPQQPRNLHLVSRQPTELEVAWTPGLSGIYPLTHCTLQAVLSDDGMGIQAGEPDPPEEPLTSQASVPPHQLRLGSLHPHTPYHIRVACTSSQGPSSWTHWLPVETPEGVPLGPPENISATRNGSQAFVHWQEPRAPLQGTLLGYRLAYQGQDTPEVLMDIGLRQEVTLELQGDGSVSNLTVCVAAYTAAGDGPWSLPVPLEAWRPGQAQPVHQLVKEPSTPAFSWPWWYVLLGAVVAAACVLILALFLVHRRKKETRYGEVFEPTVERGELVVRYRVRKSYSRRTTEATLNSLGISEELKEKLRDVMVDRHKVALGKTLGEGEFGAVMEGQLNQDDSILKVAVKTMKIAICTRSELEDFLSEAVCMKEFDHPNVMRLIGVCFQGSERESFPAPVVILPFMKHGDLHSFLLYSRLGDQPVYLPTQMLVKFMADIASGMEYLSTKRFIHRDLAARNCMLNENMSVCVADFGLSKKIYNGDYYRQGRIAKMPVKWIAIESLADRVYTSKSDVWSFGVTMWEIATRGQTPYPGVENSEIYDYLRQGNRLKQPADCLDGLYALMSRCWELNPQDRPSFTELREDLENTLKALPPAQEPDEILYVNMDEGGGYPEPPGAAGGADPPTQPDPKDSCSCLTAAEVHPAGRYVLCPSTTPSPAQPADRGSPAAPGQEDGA

[2] = biological target: Hepatocyte growth factor receptor (Homo sapiens, UniProt P08581); assay: Inhibition of N-terminal His/SUMO tagged wild type human c-Met (1038 to 1346 residues) transfected in Escherichia coli using Tyr06 peptide as substrate incubated for 1 hr in presence of ATP by FRET-based Z'-Lyte assay
Hs746T = assay: cells; settings: Homo sapiens, 120 h
BaF3 [3] = assay: cells; settings: Mus musculus, BaF3, 72 h
SNU-16 = assay: cells; settings: Homo sapiens, SNU-16, 120 h
BaF3 [4] = assay: cells; settings: Mus musculus, BaF3, 72 h; remark: listed apart in the source
AGS = assay: cells; settings: Homo sapiens, 120 h
BaF3 [5] = assay: cells; settings: Mus musculus, BaF3, 72 h; remark: listed apart in the source
BaF3 [6] = assay: cells; settings: Mus musculus, BaF3, 72 h; remark: listed apart in the source
BaF3 [7] = assay: cells; settings: Mus musculus, BaF3, 72 h; remark: listed apart in the source
BaF3 [8] = assay: cells; settings: Mus musculus, BaF3, 72 h; remark: listed apart in the source
BaF3 [9] = assay: cells; settings: Mus musculus, BaF3, 72 h; remark: listed apart in the source
BaF3 [10] = assay: cells; settings: Mus musculus, BaF3, 72 h; remark: listed apart in the source
[11] = Apparent permeability across apical to basolateral side in human Caco-2 cells at 10 uM incubated for 120 mins by LC-MS/MS analysis; format: ADME, cell-based

Hepatocyte growth factor receptor, sequence (P08581 whole entry, the tested form may be a part): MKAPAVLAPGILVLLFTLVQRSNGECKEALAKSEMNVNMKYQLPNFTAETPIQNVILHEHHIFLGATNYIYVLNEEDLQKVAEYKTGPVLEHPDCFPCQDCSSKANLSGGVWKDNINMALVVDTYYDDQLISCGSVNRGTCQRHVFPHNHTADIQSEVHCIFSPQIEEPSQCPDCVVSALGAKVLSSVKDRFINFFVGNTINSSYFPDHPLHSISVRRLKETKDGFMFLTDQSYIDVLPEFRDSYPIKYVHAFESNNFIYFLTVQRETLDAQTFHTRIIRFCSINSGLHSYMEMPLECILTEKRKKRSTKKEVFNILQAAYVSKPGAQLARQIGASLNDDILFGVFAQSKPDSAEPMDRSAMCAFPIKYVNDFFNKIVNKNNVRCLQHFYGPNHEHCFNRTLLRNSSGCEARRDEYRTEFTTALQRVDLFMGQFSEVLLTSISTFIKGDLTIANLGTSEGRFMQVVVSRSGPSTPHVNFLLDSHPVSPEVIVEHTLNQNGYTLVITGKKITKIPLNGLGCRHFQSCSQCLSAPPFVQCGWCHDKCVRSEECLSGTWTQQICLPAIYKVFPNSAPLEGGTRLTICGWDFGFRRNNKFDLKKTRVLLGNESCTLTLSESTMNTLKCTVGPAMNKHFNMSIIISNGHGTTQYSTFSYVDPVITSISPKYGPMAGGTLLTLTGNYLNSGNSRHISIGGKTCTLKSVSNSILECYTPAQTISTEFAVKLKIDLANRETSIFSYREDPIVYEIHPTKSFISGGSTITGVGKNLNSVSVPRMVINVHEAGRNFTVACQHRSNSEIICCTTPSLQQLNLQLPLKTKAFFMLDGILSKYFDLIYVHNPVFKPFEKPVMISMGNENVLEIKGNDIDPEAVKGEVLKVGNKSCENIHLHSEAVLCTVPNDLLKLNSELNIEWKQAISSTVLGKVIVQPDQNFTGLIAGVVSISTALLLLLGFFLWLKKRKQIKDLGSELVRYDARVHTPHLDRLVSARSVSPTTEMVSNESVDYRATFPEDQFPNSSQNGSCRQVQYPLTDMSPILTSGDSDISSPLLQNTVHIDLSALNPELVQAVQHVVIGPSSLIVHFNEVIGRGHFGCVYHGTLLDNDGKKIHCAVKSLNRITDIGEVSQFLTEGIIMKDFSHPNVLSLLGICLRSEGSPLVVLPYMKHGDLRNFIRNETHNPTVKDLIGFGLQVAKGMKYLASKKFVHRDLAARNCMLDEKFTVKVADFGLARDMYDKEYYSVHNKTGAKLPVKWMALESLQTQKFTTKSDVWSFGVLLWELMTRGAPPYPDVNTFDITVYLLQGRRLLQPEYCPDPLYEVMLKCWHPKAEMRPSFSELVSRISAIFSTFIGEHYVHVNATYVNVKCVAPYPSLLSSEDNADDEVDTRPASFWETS

SMILES	pIC50 [2]	pIC50 (Hs746T)	other results
CNC(=O)c1ccc(-c2ccc(=O)n(CCc3ccc4ncc(-c5cnn(C6CCOCC6)c5)cc4c3)n2)cc1C(F)(F)F	8.27	–	pIC50 [1]: 6.78
CN1CCC(COc2cnc(-c3cccc(Cn4nc(-c5cccc(C#N)c5)ccc4=O)c3)nc2)CC1 [TEPOTINIB]	–	8.35	pIC50 (BaF3 [3]): 7.44; pIC50 (SNU-16): 6.44; pIC50 (BaF3 [4]): 8.06; pIC50 (AGS): 5.84; pIC50 (BaF3 [5]): 8.00; pIC50 (BaF3 [6]): 5.62; pIC50 (BaF3 [7]): 5.51; pIC50 (BaF3 [8]): 7.33; pIC50 (BaF3 [9]): 8.60; pIC50 (BaF3 [10]): 8.82
CNC(=O)c1ccc(-c2ccc(=O)n(CCc3ccc4ncc(-c5cnn(CCN6CCOCC6)c5)cc4c3)n2)cc1C(F)(F)F	8.30	6.73	–
CNC(=O)c1ccc(-c2ccc(=O)n(CCc3ccc4ncc(NCCN5CCCCC5)cc4c3)n2)cc1C(F)(F)F	7.58	6.37	–
O=C1NCCCCCn2cc(cn2)-c2cnc3ccc(cc3c2)CCn2nc(ccc2=O)-c2ccc1c(C(F)(F)F)c2	8.48	6.79	Papp A→B at 2 h, 10 µM [11]: 0.29 ×10⁻⁶ cm/s

Second part, led by results:

pIC50 [2]	pIC50 (Hs746T)	SMILES	other results
8.38	7.70	CNC(=O)c1ccc(-c2ccc(=O)n(CCc3ccc4ncc(-c5cnn(C6CCNCC6)c5)cc4c3)n2)cc1C(F)(F)F	–
8.27	6.95	Cn1cc(-c2cnc3ccc(CCn4nc(-c5cccc(C(F)(F)F)c5)ccc4=O)cc3c2)cn1	–
8.24	5.37	Cn1cc(-c2cnc3ccc(CCn4nc(-c5ccc(C(=O)O)c(C(F)(F)F)c5)ccc4=O)cc3c2)cn1	–
8.55	6.94	CNC(=O)c1ccc(-c2ccc(=O)n(CCc3ccc4ncc(-c5cnn(CCO)c5)cc4c3)n2)cc1C(F)(F)F	–
